From patent publication US20230157952A1, “METHOD FOR IMPROVING THE STABILITY OF A PHARMACEUTICAL COMPOSITION COMPRISING A HIGH PENETRATION DRUG, AND THE PHARMACEUTICAL COMPOSITION OBTAINED THEREFROM” (Techfields Inc., priority 2020, published 2023)

Test: Effect of temperature (and pH) on the stability of the solution (purity)
Type: physicochemical
Settings: 7% solution in water

CCN(CC)CCOC(=O)C(C)c1ccc2oc(-c3ccc(Cl)cc3)nc2c1.Cl (centres unmarked)
Purity(%) at day 0 (pH 1.0, day 0): 98.1 ± 0.3%
Purity(%) at day 21 (5° C.) (pH 1.0, day 21, 5° C.): 92.9 ± 0.3%
Purity(%) at day 21 (25° C.) (pH 1.0, day 21, 25° C.): 69.2 ± 0.3%
Purity(%) at day 21 (40° C.) (pH 1.0, day 21, 40° C.): 11.3 ± 0.3%
Purity (%) at day 21 (60° C.) (pH 1.0, day 21, 60° C.): 0%
Purity(%) at day 0 (pH 2.0, day 0): 98.2 ± 0.3%
Purity(%) at day 21 (5° C.) (pH 2.0, day 21, 5° C.): 96.1 ± 0.3%
Purity(%) at day 21 (25° C.) (pH 2.0, day 21, 25° C.): 83.0 ± 0.3%
Purity(%) at day 21 (40° C.) (pH 2.0, day 21, 40° C.): 20.5 ± 0.3%
Purity (%) at day 21 (60° C.) (pH 2.0, day 21, 60° C.): 0%
Purity(%) at day 0 (pH 3.0, day 0): 98.3 ± 0.2%
Purity(%) at day 21 (5° C.) (pH 3.0, day 21, 5° C.): 97.5 ± 0.2%
Purity(%) at day 21 (25° C.) (pH 3.0, day 21, 25° C.): 94.0 ± 0.3%
Purity(%) at day 21 (40° C.) (pH 3.0, day 21, 40° C.): 45.3 ± 0.2%
Purity (%) at day 21 (60° C.) (pH 3.0, day 21, 60° C.): 0%
Purity(%) at day 0 (pH 3.7, day 0): 98.5 ± 0.1%
Purity(%) at day 21 (5° C.) (pH 3.7, day 21, 5° C.): 97.6 ± 0.2%
Purity(%) at day 21 (25° C.) (pH 3.7, day 21, 25° C.): 96.6 ± 0.2%
Purity(%) at day 21 (40° C.) (pH 3.7, day 21, 40° C.): 51.9 ± 0.2%
Purity (%) at day 21 (60° C.) (pH 3.7, day 21, 60° C.): 11.3 ± 0.3%
Purity(%) at day 0 (pH 4.0, day 0): 98.6 ± 0.1%
Purity(%) at day 21 (5° C.) (pH 4.0, day 21, 5° C.): 98.0 ± 0.1%
Purity(%) at day 21 (25° C.) (pH 4.0, day 21, 25° C.): 96.7 ± 0.2%
Purity(%) at day 21 (40° C.) (pH 4.0, day 21, 40° C.): 62.7 ± 0.2%
Purity (%) at day 21 (60° C.) (pH 4.0, day 21, 60° C.): 18.6 ± 0.2%
Purity(%) at day 0 (pH 4.3, day 0): 98.6 ± 0.1%
Purity(%) at day 21 (5° C.) (pH 4.3, day 21, 5° C.): 98.0 ± 0.1%
Purity(%) at day 21 (25° C.) (pH 4.3, day 21, 25° C.): 96.7 ± 0.1%
Purity(%) at day 21 (40° C.) (pH 4.3, day 21, 40° C.): 63.1 ± 0.2%
Purity (%) at day 21 (60° C.) (pH 4.3, day 21, 60° C.): 17.7 ± 0.2%
Purity(%) at day 0 (pH 4.6, day 0): 98.6 ± 0.1%
Purity(%) at day 21 (5° C.) (pH 4.6, day 21, 5° C.): 98.0 ± 0.1%
Purity(%) at day 21 (25° C.) (pH 4.6, day 21, 25° C.): 96.6 ± 0.1%
Purity(%) at day 21 (40° C.) (pH 4.6, day 21, 40° C.): 50.3 ± 0.2%
Purity (%) at day 21 (60° C.) (pH 4.6, day 21, 60° C.): 12.3 ± 0.2%
Purity(%) at day 0 (pH 5.0, day 0): 98.4 ± 0.2%
Purity(%) at day 21 (5° C.) (pH 5.0, day 21, 5° C.): 97.1 ± 0.2%
Purity(%) at day 21 (25° C.) (pH 5.0, day 21, 25° C.): 92.9 ± 0.2%
Purity(%) at day 21 (40° C.) (pH 5.0, day 21, 40° C.): 39.8 ± 0.2%
Purity (%) at day 21 (60° C.) (pH 5.0, day 21, 60° C.): 2.9 ± 0.2%
Purity(%) at day 0 (pH 6.0, day 0): 98.2 ± 0.2%
Purity(%) at day 21 (5° C.) (pH 6.0, day 21, 5° C.): 94.8 ± 0.2%
Purity(%) at day 21 (25° C.) (pH 6.0, day 21, 25° C.): 86.8 ± 0.2%
Purity(%) at day 21 (40° C.) (pH 6.0, day 21, 40° C.): 20.6 ± 0.3%
Purity (%) at day 21 (60° C.) (pH 6.0, day 21, 60° C.): 0%
Purity(%) at day 0 (pH 7.0, day 0): 98.0 ± 0.2%
Purity(%) at day 21 (5° C.) (pH 7.0, day 21, 5° C.): 89.1 ± 0.3%
Purity(%) at day 21 (25° C.) (pH 7.0, day 21, 25° C.): 60.9 ± 0.2%
Purity(%) at day 21 (40° C.) (pH 7.0, day 21, 40° C.): 7.4 ± 0.3%
Purity (%) at day 21 (60° C.) (pH 7.0, day 21, 60° C.): 0%
Purity(%) at day 0 (pH 8.0, day 0): 97.7 ± 0.3%
Purity(%) at day 21 (5° C.) (pH 8.0, day 21, 5° C.): 78.7 ± 0.3%
Purity(%) at day 21 (25° C.) (pH 8.0, day 21, 25° C.): 47.9 ± 0.3%
Purity(%) at day 21 (40° C.) (pH 8.0, day 21, 40° C.): 0%
Purity (%) at day 21 (60° C.) (pH 8.0, day 21, 60° C.): 0%

CCN(CC)CCOC(=O)COc1nn(Cc2ccccc2)c2ccccc12.Cl
Purity(%) at day 0 (pH 1.0, day 0): 97.5 ± 0.3%
Purity(%) at day 21 (5° C.) (pH 1.0, day 21, 5° C.): 89.9 ± 0.3%
Purity(%) at day 21 (25° C.) (pH 1.0, day 21, 25° C.): 63.5 ± 0.3%
Purity(%) at day 21 (40° C.) (pH 1.0, day 21, 40° C.): 9.1 ± 0.3%
Purity (%) at day 21 (60° C.) (pH 1.0, day 21, 60° C.): 0%
Purity(%) at day 0 (pH 2.0, day 0): 97.7 ± 0.2%
Purity(%) at day 21 (5° C.) (pH 2.0, day 21, 5° C.): 93.0 ± 0.2%
Purity(%) at day 21 (25° C.) (pH 2.0, day 21, 25° C.): 77.8 ± 0.3%
Purity(%) at day 21 (40° C.) (pH 2.0, day 21, 40° C.): 19.6 ± 0.3%
Purity (%) at day 21 (60° C.) (pH 2.0, day 21, 60° C.): 0%
Purity(%) at day 0 (pH 3.0, day 0): 97.8 ± 0.2%
Purity(%) at day 21 (5° C.) (pH 3.0, day 21, 5° C.): 96.8 ± 0.2%
Purity(%) at day 21 (25° C.) (pH 3.0, day 21, 25° C.): 91.3 ± 0.2%
Purity(%) at day 21 (40° C.) (pH 3.0, day 21, 40° C.): 40.4 ± 0.2%
Purity (%) at day 21 (60° C.) (pH 3.0, day 21, 60° C.): 0%
Purity(%) at day 0 (pH 3.7, day 0): 97.9 ± 0.1%
Purity(%) at day 21 (5° C.) (pH 3.7, day 21, 5° C.): 97.5 ± 0.1%
Purity(%) at day 21 (25° C.) (pH 3.7, day 21, 25° C.): 95.6 ± 0.2%
Purity(%) at day 21 (40° C.) (pH 3.7, day 21, 40° C.): 55.6 ± 0.2%
Purity (%) at day 21 (60° C.) (pH 3.7, day 21, 60° C.): 8.5 ± 0.2%
Purity(%) at day 0 (pH 4.0, day 0): 98.1 ± 0.1%
Purity(%) at day 21 (5° C.) (pH 4.0, day 21, 5° C.): 97.6 ± 0.1%
Purity(%) at day 21 (25° C.) (pH 4.0, day 21, 25° C.): 95.7 ± 0.1%
Purity(%) at day 21 (40° C.) (pH 4.0, day 21, 40° C.): 57.2 ± 0.2%
Purity (%) at day 21 (60° C.) (pH 4.0, day 21, 60° C.): 23.2 ± 0.2%
Purity(%) at day 0 (pH 4.3, day 0): 98.1 ± 0.1%
Purity(%) at day 21 (5° C.) (pH 4.3, day 21, 5° C.): 97.7 ± 0.2%
Purity(%) at day 21 (25° C.) (pH 4.3, day 21, 25° C.): 95.5 ± 0.1%
Purity(%) at day 21 (40° C.) (pH 4.3, day 21, 40° C.): 58.8 ± 0.3%
Purity (%) at day 21 (60° C.) (pH 4.3, day 21, 60° C.): 25.8 ± 0.2%
Purity(%) at day 0 (pH 4.6, day 0): 97.9 ± 0.1%
Purity(%) at day 21 (5° C.) (pH 4.6, day 21, 5° C.): 97.6 ± 0.1%
Purity(%) at day 21 (25° C.) (pH 4.6, day 21, 25° C.): 95.1 ± 0.1%
Purity(%) at day 21 (40° C.) (pH 4.6, day 21, 40° C.): 54.7 ± 0.2%
Purity (%) at day 21 (60° C.) (pH 4.6, day 21, 60° C.): 16.5 ± 0.2%
Purity(%) at day 0 (pH 5.0, day 0): 97.8 ± 0.2%
Purity(%) at day 21 (5° C.) (pH 5.0, day 21, 5° C.): 95.9 ± 0.2%
Purity(%) at day 21 (25° C.) (pH 5.0, day 21, 25° C.): 91.8 ± 0.2%
Purity(%) at day 21 (40° C.) (pH 5.0, day 21, 40° C.): 36.1 ± 0.2%
Purity (%) at day 21 (60° C.) (pH 5.0, day 21, 60° C.): 4.2 ± 0.2%
Purity(%) at day 0 (pH 6.0, day 0): 97.6 ± 0.3%
Purity(%) at day 21 (5° C.) (pH 6.0, day 21, 5° C.): 93.7 ± 0.2%
Purity(%) at day 21 (25° C.) (pH 6.0, day 21, 25° C.): 78.9 ± 0.2%
Purity(%) at day 21 (40° C.) (pH 6.0, day 21, 40° C.): 18.5 ± 0.2%
Purity (%) at day 21 (60° C.) (pH 6.0, day 21, 60° C.): 0%
Purity(%) at day 0 (pH 7.0, day 0): 97.5 ± 0.3%
Purity(%) at day 21 (5° C.) (pH 7.0, day 21, 5° C.): 89.3 ± 0.2%
Purity(%) at day 21 (25° C.) (pH 7.0, day 21, 25° C.): 59.7 ± 0.3%
Purity(%) at day 21 (40° C.) (pH 7.0, day 21, 40° C.): 7.1 ± 0.3%
Purity (%) at day 21 (60° C.) (pH 7.0, day 21, 60° C.): 0%
Purity(%) at day 0 (pH 8.0, day 0): 97.4 ± 0.4%
Purity(%) at day 21 (5° C.) (pH 8.0, day 21, 5° C.): 77.5 ± 0.3%
Purity(%) at day 21 (25° C.) (pH 8.0, day 21, 25° C.): 39.8 ± 0.3%
Purity(%) at day 21 (40° C.) (pH 8.0, day 21, 40° C.): 0%
Purity (%) at day 21 (60° C.) (pH 8.0, day 21, 60° C.): 0%
